Measurements from patent EP0140154A2, “1,2,4-Triazolylpropanols, and their production and use” (SUMITOMO CHEMICAL COMPANY, LIMITED, priority 1983, dated 1985).
Structures can show the parent of a compound that is named as a salt.

Columns and labels:
[1] = tested on: Cryptococcus neoformans MTU 13001; experiment: Antifungal activity test (in vivo), Cryptococcus neoformans infection in mice; details: DDY male mice infected i.v. with 2 x 10^6 cells, oral; for Survival rate at complete death of non-medicated group (%): total dose 20 mg/kg at 0, 5, 24 and 48 hours; for Average survival day(s): total dose 20 mg/kg, 10 days observation
Description: (§1) Antifungal activity test (in vivo):- • Aspergillus fumigatus MTU 16001 or Cryptococcus neoformans MTU 13001 as pre-cultured at 30°C for 4 days was suspended in physiologically saline solution, and the suspension was intravenously injected into DDY strain male mice of 5 weeks old (body weight, 24 - 27 g), every 10 animals being grouped, through the tail vein so as to inoculate a cell number of 2 x 10^6 per animal.
(§2) The animals were orally medicated with the test compound in the form of 0.5 % methylcellulose suspension at a total dose of 20 mg per kg of the body weight 0, 5, 24 and 48 hours after the infection, and observation was continued for 10 days after the infection. The results are shown in Table 3, wherein the numeral indicates an average number of survival days of 10 animals as one group in contrast to that of the non-medicated (control) group.

Candida albicans KB-8 = experiment: Antifungal activity test (in vivo), Candida albicans infection in mice; details: DDY male mice infected i.v. with 10^7 cells; oral, total dose 20 mg/kg at 0, 5, 24 and 48 hours after infection; 10 days observation; number in brackets is the non-medicated control
Description: Antifungal activity test (in vivo):-Candida albicans KB-8 as pre-cultured at 30°C for 4 days was suspended in physiologically saline solution, and the suspension was intravenously injected into DDY strain
male mice of 5 weeks old, every 10 animals being grouped, through the tail vein so as to inoculate a cell number of 10^7 per animal.
as §2, with “2,” for “3,”
For comparison, the following compounds were also tested: [drawing 6] [drawing 7]

Acute toxicity = details: mouse, in vivo; DDY male mice, oral, 0.5 % methylcellulose suspension, seven days after medication, Probit method
Description: Acute toxicity:- • DDY strain male mice of 5 weeks old, every 10 mice being grouped, received orally the test compound in the form of 0.5 % methylcellulose suspension at a dose from five kinds increasing with a common ratio of 1.3, and observation on the death of animals was continued. Seven days after the medication, the LD50 value was calculated from the rate of death according to the Probit method.

[2] = tested on: Aspergillus fumigatus MTU 16001; experiment: Antifungal activity test (in vivo), Aspergillus fumigatus infection in mice; details: DDY male mice infected i.v. with 2 x 10^6 cells, oral; for Survival rate at complete death of non-medicated group (%): total dose 20 mg/kg at 0, 5, 24 and 48 hours; for Average survival day(s): total dose 20 mg/kg, 10 days observation
Description: as §1, §2

[3] = Liver weight increase test; format: in vivo, DDY strain male mice; details: mice infected with Candida albicans KB-8, survived animals
Description: Liver weight increase test:- • Candida albicans KB-8 was intraveously injected into DDY strain male mice of 5 weeks old, every 20 animals being grouped, at a rate of […] cells per mouse. After infection, the animals were orally medicated with the test compound in the form of 0.5 % methylcellulose suspension once a day for 20 consecutive days, during which observation on the liver weight was continued.
The average liver weight in survived animals as calculated are shown in Table 5, from which it is understood that the liver weight is not increased when the compound of the invention is given at a daily dose of not more than 4 mg/kg, while the liver weight is increased when the compound of Japanese Patent Publn. (unexamined) No. 185571/83 is given at a daily dose of not less than 1 mg/kg.

[4] = dose 0.5 mg/kg p.o. once a day for 20 consecutive days
[5] = dose 1.0 mg/kg p.o. once a day for 20 consecutive days
[6] = dose 2.0 mg/kg p.o. once a day for 20 consecutive days
[7] = dose 4.0 mg/kg p.o. once a day for 20 consecutive days
[8] = dose 8.0 mg/kg p.o. once a day for 20 consecutive days

Compound	Survival rate at complete death of non-medicated group (%) [1]	Average survival day(s) [1]	Average survival days (control) (Candida albicans KB-8)	LD50 at 168 h (Acute toxicity)	Survival rate at complete death of non-medicated group (%) [2]	Average survival day(s) [2]	Average weight of liver [3, 4]	Average weight of liver [3, 5]	Average weight of liver [3, 6]	Average weight of liver [3, 7]	Average weight of liver [3, 8]
CCC(C)(C)[S+]([O-])CC(O)(Cn1cncn1)c1ccc(Cl)cc1Cl (stereo not drawn) [Compound No. 2A, 2-(2,4-dichlorophenyl)-3-tert-pentylsulfinyl-1-(1,2,4-triazol-1-yl)propan-2-ol]	90%	743000 s	9.7 (1.2) days	1830 mg/kg	70%	311000 s					
CCCC(C)[S+]([O-])CC(O)(Cn1cncn1)c1ccc(Cl)cc1Cl (single isomer, unassigned) [4A]			9.2 (1.2) days	> 1500 mg/kg							
CC(=O)N1CCN(c2ccc(OCC3COC(Cn4ccnc4)(c4ccc(Cl)cc4Cl)O3)cc2)CC1 (stereo not drawn) [Ketoconazole, reference compound]			4.8 (0.8) days	1100 mg/kg							
CC(C)CC[S+]([O-])CC(O)(Cn1cncn1)c1ccc(Cl)cc1Cl (single isomer, unassigned) [3A]			7.7 (1.2) days	> 2000 mg/kg							
CS(=O)(=O)CC(O)(Cn1cncn1)c1ccc(Cl)cc1Cl (stereo not drawn) [I, reference compound]	80%	674000 s	9.6 (1.2) days	770 mg/kg	60%	233000 s	1.30 g	1.50 g	1.70 g	1.85 g	1.90 g
CCC(CC)[S+]([O-])CC(O)(Cn1cncn1)c1ccc(Cl)cc1Cl (single isomer, unassigned) [5A]			8.9 (1.2) days	> 2000 mg/kg							
CCC(C)(C)S(=O)(=O)CC(O)(Cn1cncn1)c1ccc(Cl)cc1Cl (stereo not drawn) [II, reference compound]			1.4 (1.0) days								
CCCCC[S+]([O-])CC(O)(Cn1cncn1)c1ccc(Cl)cc1Cl (single isomer, unassigned) [1A, 2-(2,4-dichlorophenyl)-3-n-pentylsulfinyl-l-(l,2,4-triazol-1-yl)propan-2-ol oxalate]			9.0 (1.2) days	1740 mg/kg			1.20 g	1.18 g	1.15 g	1.25 g	1.60 g
